Test results: ChEMBL document CHEMBL1201862, “PubChem BioAssay data set” (2004)
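Grown in 96-well plates, cells were treated for 48 hours with each compound at five concentrations. Insufficient inhibition: endpoint recorded as highest concentration tested. GI50 = concentration required for 50% inhibition of growth.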 Active and inactive are the calls of the source. No stated cut-off is given here; in the data, active = GI50 up to about 1.1 µM and inactive = higher.

Columns and labels:
Test in all cases: NCI-60 cell line screen, 48 h
RXF 393 = tested on: RXF 393
CCRF-CEM = tested on: CCRF-CEM
HCT-15 = tested on: HCT-15
U-251 = tested on: U-251
NCI-H522 = tested on: NCI-H522
PC-3 = tested on: PC-3
HT-29 = tested on: HT-29
NCI-H460 = tested on: NCI-H460
SF-268 = tested on: SF-268
HCC 2998 = tested on: HCC 2998
MDA-MB-435 = tested on: MDA-MB-435
OVCAR-5 = tested on: OVCAR-5
RPMI-8226 = tested on: RPMI-8226
SN12C = tested on: SN12C
IGROV-1 = tested on: IGROV-1
M14 = tested on: M14
T47D = tested on: T47D
DU-145 = tested on: DU-145
HOP-92 = tested on: HOP-92

SMILES	GI50 (RXF 393)	GI50 (CCRF-CEM)	GI50 (HCT-15)	GI50 (U-251)	GI50 (NCI-H522)	GI50 (PC-3)	GI50 (HT-29)	GI50 (NCI-H460)	GI50 (SF-268)	GI50 (HCC 2998)	GI50 (MDA-MB-435)	GI50 (OVCAR-5)	GI50 (RPMI-8226)	GI50 (SN12C)	GI50 (IGROV-1)	GI50 (M14)	GI50 (T47D)	GI50 (DU-145)	GI50 (HOP-92)
O=C1OCC(CN2CCC(n3c(=O)[nH]c4ccccc43)CC2)=C1c1ccccc1	34.8 µM (inactive)	13.7 µM (inactive)	23 µM	35.5 µM (inactive)	19.2 µM (inactive)	19 µM (inactive)	19.7 µM (inactive)	6.78 µM (inactive)	28.1 µM (inactive)	23.8 µM (inactive)	25.3 µM (inactive)	41 µM (inactive)	28.8 µM (inactive)	22 µM (inactive)	22.2 µM (inactive)	18.3 µM (inactive)	6.03 µM (inactive)	24.8 µM (inactive)	–
CC1C(=NO)C(C)C(c2ccccc2)N(N=O)C1c1ccccc1 (configuration not stated)	17.1 µM (inactive)	28.1 µM (inactive)	16.6 µM	17.7 µM (inactive)	14.7 µM (inactive)	25.4 µM (inactive)	17.4 µM (inactive)	16 µM (inactive)	15 µM (inactive)	18.4 µM (inactive)	21.3 µM (inactive)	–	–	15.5 µM (inactive)	19.6 µM (inactive)	16 µM (inactive)	18.7 µM (inactive)	30.8 µM (inactive)	19.7 µM (inactive)
CC1(C)C(C#N)=[N+]([O-])C(C)(C)N1O	> 100 µM (inactive)	33.5 µM (inactive)	> 100 µM	> 100 µM (inactive)	–	> 100 µM (inactive)	> 100 µM (inactive)	> 100 µM (inactive)	> 100 µM (inactive)	> 100 µM (inactive)	37.7 µM (inactive)	> 100 µM (inactive)	> 100 µM (inactive)	> 100 µM (inactive)	> 100 µM (inactive)	> 100 µM (inactive)	> 100 µM (inactive)	> 100 µM (inactive)	> 100 µM (inactive)
CC1(C)Oc2ccc(NC(=O)CCC(N)C(=O)O)cc2O1 (configuration not stated)	> 100 µM (inactive)	> 100 µM (inactive)	> 100 µM	> 100 µM (inactive)	> 100 µM (inactive)	> 100 µM (inactive)	> 100 µM (inactive)	> 100 µM (inactive)	–	> 100 µM (inactive)	> 100 µM (inactive)	> 100 µM (inactive)	> 100 µM (inactive)	> 100 µM (inactive)	> 100 µM (inactive)	> 100 µM (inactive)	> 100 µM (inactive)	> 100 µM (inactive)	> 100 µM (inactive)
C=CCOC(OCC=C)/C(Br)=C/C	29.2 µM (inactive)	10.3 µM (inactive)	24 µM	59.2 µM (inactive)	–	93.1 µM (inactive)	20.2 µM (inactive)	67.3 µM (inactive)	28.8 µM (inactive)	80.9 µM (inactive)	26.9 µM (inactive)	49.5 µM (inactive)	> 100 µM (inactive)	> 100 µM (inactive)	–	32.1 µM (inactive)	31.8 µM (inactive)	55.2 µM (inactive)	56.5 µM (inactive)
O=C([C@H](O)[C@@H](O)c1ccc(Br)cc1)C12CC3CC(CC(C3)C1)C2	52.7 µM (inactive)	–	13.6 µM	7.18 µM (inactive)	10.8 µM (inactive)	6.58 µM (inactive)	12.7 µM (inactive)	3.74 µM (inactive)	11.6 µM (inactive)	> 21.3 µM (inactive)	11.6 µM (inactive)	39.4 µM (inactive)	14.3 µM (inactive)	17.9 µM (inactive)	4.48 µM (inactive)	13.6 µM (inactive)	6.56 µM (inactive)	9.68 µM (inactive)	–
COc1ccc(N[C@H](C[S+]([O-])c2ccc(C)cc2)C(F)(F)F)cc1 (some centres not stated)	> 100 µM (inactive)	> 100 µM (inactive)	> 100 µM	> 100 µM (inactive)	> 100 µM (inactive)	> 100 µM (inactive)	> 100 µM (inactive)	> 100 µM (inactive)	–	> 100 µM (inactive)	> 100 µM (inactive)	> 100 µM (inactive)	–	> 100 µM (inactive)	> 100 µM (inactive)	> 100 µM (inactive)	> 100 µM (inactive)	> 100 µM (inactive)	> 100 µM (inactive)
CC(=O)N(CCc1ccccc1)C(C#N)c1ccc(OCCCCCCCCCCOc2ccc(C(C#N)N(CCc3ccccc3)C(C)=O)cc2)cc1 (configuration not stated)	22.6 µM (inactive)	> 100 µM (inactive)	99.1 µM	21.7 µM (inactive)	–	63.4 µM (inactive)	> 100 µM (inactive)	94.8 µM (inactive)	21.7 µM (inactive)	> 100 µM (inactive)	> 100 µM (inactive)	> 100 µM (inactive)	–	> 100 µM (inactive)	31.6 µM (inactive)	> 100 µM (inactive)	41 µM (inactive)	85.9 µM (inactive)	15 µM (inactive)
COc1ccc2c(=O)c3c([nH]c2c1)OCC3=O	> 100 µM (inactive)	> 100 µM (inactive)	> 100 µM	> 100 µM (inactive)	–	> 100 µM (inactive)	> 100 µM (inactive)	> 100 µM (inactive)	> 100 µM (inactive)	> 100 µM (inactive)	> 100 µM (inactive)	–	> 100 µM (inactive)	–	> 100 µM (inactive)	> 100 µM (inactive)	> 100 µM (inactive)	> 100 µM (inactive)	> 100 µM (inactive)
COC(NC(=O)Nc1ccccc1C)(C(F)(F)F)C(F)(F)F	1.21 µM (inactive)	40.7 µM (inactive)	–	34.5 µM (inactive)	30.4 µM (inactive)	56.4 µM (inactive)	> 100 µM (inactive)	> 100 µM (inactive)	> 100 µM (inactive)	> 100 µM (inactive)	> 100 µM (inactive)	> 100 µM (inactive)	> 100 µM (inactive)	> 100 µM (inactive)	> 100 µM (inactive)	> 100 µM (inactive)	22.4 µM (inactive)	> 100 µM (inactive)	> 100 µM (inactive)
CCOc1cc2c(cc1OC(C)=O)C(=O)CC[C@H]1C3CC[C@H](OC(C)=O)[C@@]3(C)CC[C@H]21 (some centres not stated)	> 100 µM (inactive)	> 100 µM (inactive)	> 100 µM	> 100 µM (inactive)	> 100 µM (inactive)	> 100 µM (inactive)	> 100 µM (inactive)	> 100 µM (inactive)	> 100 µM (inactive)	> 100 µM (inactive)	> 100 µM (inactive)	> 100 µM (inactive)	> 100 µM (inactive)	–	–	> 100 µM (inactive)	> 100 µM (inactive)	> 100 µM (inactive)	> 100 µM (inactive)
CN(CCNC(=O)c1nn(-c2ccccc2)c2c1ccc1ccccc12)CCNC(=O)c1nn(-c2ccccc2)c2c1ccc1ccccc12	1.62 µM (inactive)	2.9 µM (inactive)	1.76 µM	1.57 µM (inactive)	2.04 µM (inactive)	2.13 µM (inactive)	2.94 µM (inactive)	1.41 µM (inactive)	2.38 µM (inactive)	1.53 µM (inactive)	1.97 µM (inactive)	4.49 µM (inactive)	0.202 µM (active)	1.88 µM (inactive)	1.98 µM (inactive)	1.78 µM (inactive)	2.41 µM (inactive)	4.85 µM (inactive)	1.73 µM (inactive)
Nc1ncnc2c1ncn2C1CCC(COS(N)(=O)=O)C1 (configuration not stated)	> 100 µM (inactive)	> 100 µM (inactive)	> 100 µM	> 100 µM (inactive)	–	> 100 µM (inactive)	> 100 µM (inactive)	> 100 µM (inactive)	> 100 µM (inactive)	> 100 µM (inactive)	> 100 µM (inactive)	> 100 µM (inactive)	> 100 µM (inactive)	> 100 µM (inactive)	> 100 µM (inactive)	> 100 µM (inactive)	93.5 µM (inactive)	> 100 µM (inactive)	> 100 µM (inactive)
Clc1ccc(Cl)c(/N=N/c2cc3c4c(c2)CCCN4CCC3)c1	> 10 µM (inactive)	> 10 µM (inactive)	> 10 µM	> 10 µM (inactive)	> 10 µM (inactive)	> 10 µM (inactive)	> 10 µM (inactive)	> 10 µM (inactive)	> 10 µM (inactive)	> 10 µM (inactive)	> 10 µM (inactive)	–	> 10 µM (inactive)	> 10 µM (inactive)	> 10 µM (inactive)	> 10 µM (inactive)	> 10 µM (inactive)	> 10 µM (inactive)	> 10 µM (inactive)
COc1ccc(CNNC(=O)c2cc[n+]([BH2-]C#N)cc2)cc1OC	> 100 µM (inactive)	> 100 µM (inactive)	> 100 µM	> 100 µM (inactive)	> 100 µM (inactive)	> 100 µM (inactive)	–	> 100 µM (inactive)	> 100 µM (inactive)	> 100 µM (inactive)	> 100 µM (inactive)	> 100 µM (inactive)	> 100 µM (inactive)	> 100 µM (inactive)	> 100 µM (inactive)	> 100 µM (inactive)	> 100 µM (inactive)	> 100 µM (inactive)	> 100 µM (inactive)
c1ccc([I+]c2ccccc2)cc1	> 100 µM (inactive)	> 100 µM (inactive)	> 100 µM	> 100 µM (inactive)	> 100 µM (inactive)	> 100 µM (inactive)	> 100 µM (inactive)	> 100 µM (inactive)	> 100 µM (inactive)	> 100 µM (inactive)	> 100 µM (inactive)	> 100 µM (inactive)	> 100 µM (inactive)	> 100 µM (inactive)	> 100 µM (inactive)	> 100 µM (inactive)	> 100 µM (inactive)	> 100 µM (inactive)	70 µM (inactive)
